The values that follow come from US20220322803A1 (KONKUK UNIVERSITY INDUSTRIAL COOPERATION CORP, priority 2019, published 2022).

Data set [1] is described as follows: Perm of brown hair, hydrogen water vs hydrogen peroxide as second agent. The settings on record: 30 washes, hydrogen water 10 times at 2-minute intervals, hydrogen peroxide left 10 minutes. The method, then: According to the method used in a general beauty salon using a rod, cysteine treatment as a reduction agent, intermediate washing, setting, oxidation agent treatment, and measurement after washing were performed in the order. Brown hair was treated with a reduction agent (Hair 119 Clinic SuBoon Perm, Eson Chemical, Korea) and left at 37° C. for 5 minutes. […] Then the hair was separated. After washing them once, the length of perm hair was measured. After that, the perm hair length was measured when repeatedly washed 30 times, once a day (FIG. 3C). Natural Shampoo (Repit, Korea) was used as a cleaning agent. A method of preparing hydrogen water is as follows. After adding NaCl to distilled water to prepare a 0.05% NaCl solution, salted distilled water was boiled for about 5 minutes to remove dissolved oxygen as much as possible, and then quenched to 25° C. (water cooling).

Data set [2] is described as follows: Straight perm of curly hair. The settings on record: second agent (gel with 0.5% xanthan gum for the waters) oxidized 10 minutes. As to the method: The first agent used in straight perm was Standard of Hair […] Two Way Straight (UCL, Incheon). The second agent used in the perm was a mixture of Standard of Hair […] Two Way Straight (UCL, Incheon) and xanthan gum in each hydrogen water and electrolyzed water. Tap water was used to generate the used electrolyzed hydrogen water and electrolyzed water. […] To each of these, xanthan gum was added to 0.5% and mixed to form a gel. The perm process proceeded as follows. The first agent was applied to the hair and softened at 37° C. for 30 minutes. […] After the oxidation process was completed, the hair was washed, photographed, and measured.

Data set [3] is described as follows: Cold perm with 25°C electrolyzed water sprayed as second agent. The settings on record: hydrogen peroxide as second agent; basis of commercial suitability; hair 27 cm.
Procedure: About 50 strands of natural black hair were fixed and cut to 27 cm in length and used in the experiment. The perm process was performed as follows. The natural black hair was fixed and washed according to the above standards. After washing, the dried hair bundle was reduced by treatment with the first agent (Hair 119 Clinic SuBoon Perm, Eson Chemical, Korea) at 37° C. for 25 minutes. After the reduction process, the first agent was removed by washing with distilled water to increase the reproducibility of the wave efficiency. […] After the application was finished, the rod was removed.

For the compound `OO` [hydrogen peroxide], in data set [1], the sagging of wave entry is listed as “sagging was seen in 30 washes”. In data set [2], the “result of straight perm treatment” value is “curly hair was well straightened”. Moreover, in data set [3], the “length of the perm hair after washing once” value is reported as “about 22 cm”. The “split ends / hair surface” value (bleached, dyed hair after perm) is on record as “had split ends”. Further, under “washing once after the perm treatment, from L value”, the dye eluted was 11.43%.
